The source of these data is patent US20240392241A1, “METHOD FOR PRODUCING CELL MASS INCLUDING PITUITARY TISSUE AND CELL MASS” (SUMITOMO CHEMICAL COMPANY, LIMITED, priority 2021, published 2024).

Ends that are not written are not given here.

Common to all, as to type: cell-based
Test [1] concerns human ES cells (RAX::Venus knock-in KhES-1 strain). As to the kind of experiment: Addition period of IWP2, SB431542 and BMP4, immunostaining of PITX1, LHX3, E-cadherin on day 29 (Reference Example 2). The note with it: IWP2 (2 μM) and SB431542 (1 μM) added day 0 to day 29 and BMP4 (5 nM) day 2 to day 6, vs other addition periods. As for the experimental part:
After performing step a, suspension culturing was performed in a medium containing a Wnt signal inhibitor IWP2 (2 μM) and a TGFβ signal inhibitor SB431542 (1 μM) in addition to BMP4 (5 nM) and SAG (100 nM (step (1)) or 2 μM (step (2)). IWP2 and SB431542 were added during the period from day 0 to day 6 after the start of suspension culturing (FIG. 8B-1), from day 0 to day 12 after the start of suspension culturing (FIG. 8B-2), or from day 0 to day 29 after the start of suspension culturing (FIG. 8B-3). BMP4 was added during the period from day 2 to day 6 after the start of suspension culturing (upper panel of each of FIGS. 8B-1 to -3) or from day 2 to day 18 after the start of suspension culturing (lower panel of each of FIGS. 8B-1 to -3). Using cell aggregates on day 29 after the start of suspension culturing, cryosections were prepared in the same manner as in Example 3. These cryosections were subjected to immunostaining using PITX1 (anti-Pitx1 antibody, homemade) and antibody against epithelial cell marker E-cadherin (manufactured by Takara Bio Inc.). As a result, it was confirmed that the outside of the aggregate was a nonneural epithelial tissue that was positive for PITX1 and E-cadherin, and the inside was a neural epithelial tissue that was positive for RAX::Venus (FIGS. 8B-1 to -3).
The scale bar at the bottom right of FIGS. 8B-1 to -3 indicates 200 μm.

Test [2] deals with human ES cells (KhES-1 strain). As to the kind of experiment: Concentration of IWP2, BMP4 and SAG, ACTH concentration in culture medium (Reference Example 3). To be noted: combination: low (IWP2 0.5 μM, BMP4 0.5 nM, SAG 700 nM) vs high (IWP2 2 μM, BMP4 5 nM, SAG 2 μM); days 61-250. On the procedure: Then, for the purpose of examining the optimal concentrations of IWP2, BMP4, and SAG to be added in each step, two groups of a high concentration group (IWP2; 2 μM, BMP4; 5 nM, SAG; 2 μM) and a low concentration group (IWP2; 0.5 μM, BMP4; 0.5 nM, SAG; 700 nM) were established, and a comparative study was conducted using the ACTH concentration in the culture medium on days 61, 103, 152, 201, and 250 of differentiation induction as an indicator. Using human ES cells (KhES-1 strain) and according to step shown in FIG. 9A, a cell population including cells that constitute pituitary tissue was produced. Using the method described in Example 4, the concentration of ACTH in the medium was measured.

Test [3] relates to cell aggregates containing pituitary tissue from human ES cells (KhES-1 strain). The test is described as follows: ACTH stimulation/suppression test by CRH or dexamethasone in cell aggregates containing pituitary tissue (Example 14). The note with it: 24 hr, cell aggregates on day 103. On the procedure: Cell aggregates containing pituitary tissue were produced in the same manner as in Example 10, and ACTH secretory capacity was studied. 20 cell aggregates with different numbers of culture days after the start of suspension culturing were transferred to a 10 cm suspension culture dish containing 10 mL of serum-free medium supplemented with 20% KSR, and after culturing for 3-4 days at 37° C., the culture supernatant was recovered. The ACTH concentration in the recovered culture supernatant was measured by the ELISA method used in clinical testing (testing outsourced to SRL, Ltd.). As a result, ACTH secretion was observed from day 29 after the start of suspension culturing (23 pg/mL), and the amount of ACTH secretion increased remarkably as the number of days of culture increased (FIG. 17A).
Then, it was studied whether an increase in ACTH secretion by CRH and suppression of ACTH secretion by glucocorticoid were observed. Specifically, 20 cell aggregates on day 103 after the start of suspension culturing were transferred to a 10 cm suspension culture dish containing 10 mL of serum-free medium supplemented with 20% KSR, and after culturing for 24 hr under conditions of 37° C., […], the culture supernatant was recovered. […] The ACTH concentration in the recovered culture supernatant was measured as described above. […]

In test [4] the test system is human iPS cells (201B7 strain). As to the kind of experiment: SAG addition period and ACTH secretion capacity of cell aggregates (Example 9). The note with it: stopping SAG treatment 30 days after start of differentiation induction vs continued SAG treatment. As for the experimental part: Using human iPS cells (201B7 strain) and according to the steps shown in FIG. 12A, cell aggregates were produced. Regarding the SAG treatment period, two groups of a group in which SAG is added from immediately after the start of differentiation induction until day 30, and a group in which SAG is added from immediately after the start of differentiation induction and after day 30 (until day 61, until day 103, and until day 131) were set, and the ACTH secretion capacity was compared. ACTH was measured by a method similar to that in Example 4.

Test [5] relates to human iPS cell line 1231A3. As to the kind of experiment: Effect of substance reducing oxidative stress on pituitary organoid production, bright field observation (Example 6). To be noted: 1 mM from day 10; day 30 of differentiation induction.
Test [6] relates to human iPS cells (1231A3 strain). As to the kind of experiment: Timing of BMP4 addition under JNK inhibitor addition conditions, oblique illumination observation (Example 17). The note with it: BMP4 added after 24 hr (day 1) vs about 48 hr (day 2); JNK inhibitor present; day 28. As for the experimental part: In Example 17, a cell population containing cells constituting pituitary tissue was produced according to the steps shown in FIG. 20A. Specifically, human iPS cells (1231A3 strain, obtained from RIKEN) were cultured under feeder-free conditions according to the method described in Scientific Reports, 4, 3594 (2014). As the feeder-free medium, StemFit medium was used and, as the feeder-free scaffold, Laminin 511-E8 was used.
Differentiation induction was performed under the same conditions as in Example 1, except that the addition conditions of BMP4 and the final concentration of IWP-2 were changed to 1 μM. As a condition for adding BMP4, step (2) was performed about 24 hr (day 1) and about 48 hr (day 2) after the start of differentiation induction.
On day 28 after the start of suspension culturing, oblique illumination observation was performed using an inverted fluorescence microscope (BIOREVO BZ-X800, manufactured by Keyence Corporation) (FIG. 20B). As a result, pituitary organoid with placode-like pituitary tissue observed as a thick, highly transparent epithelium on the surface of the cell mass was formed, under both BMP4 addition conditions of about 24 hr (day 1) and about 48 hr (day 2) after the start of differentiation induction. […]

For `NC(=O)c1ccc(-c2nc(-c3ccc4c(c3)OCO4)c(-c3ccccn3)[nH]2)cc1` [SB431542, 4-[4-(3,4-Methylenedioxyphenyl)-5-(2-pyridyl)-1H-imidazol-2-yl]benzamide], the “formation of PITX1-positive and E-cadherin-positive nonneural epithelial tissue” value (from here on “formation”) in test [1] was “highest probability”.
Take `Cc1ccc2nc(NC(=O)CSc3nc4c(c(=O)n3-c3ccccc3)SCC4)sc2c1` [IWP2, N-(6-Methyl-2-benzothiazolyl)-2-[(3,4,6,7-tetrahydro-4-oxo-3-phenylthieno[3,2-d]pyrimidin-2-yl)thio]acetamide]: in test [1], the “formation” value is “highest probability”. Further, the “ACTH concentration in the culture medium, low concentration group vs high concentration group” value (from here on “ACTH concentration … vs high concentration group”) in test [2] is recorded as “higher”.
As for “CRH: CRH (manufactured by Nipro ES Pharma) used to stimulate ACTH secretion (SEEPPISLDLTFHLLREVLEMARAEQLAQQAHSNRKLMEII; ends and bridges not checked; UniProt P06850 154-194, looked up)”, the “increase of ACTH secretion amount” value in test [3] (5 μg/mL) is “about 3 times”.
Regarding `CNC1CCC(N(Cc2cccc(-c3ccncc3)c2)C(=O)c2sc3ccccc3c2Cl)CC1` (stereo not drawn) [SAG, N-Methyl-N′-(3-pyridinylbenzyl)-N′-(3-chlorobenzo[b]thiophene-2-carbonyl)-1,4-diaminocyclohexane], the ACTH secretion capacity entry in test [4] is given as “improved”. Further, in test [2], the “ACTH concentration … vs high concentration group” value was “higher”.
In the case of `CC(=O)N[C@@H](CS)C(=O)O` [NAC, N-acetylcysteine], in test [5], the “cell masses smaller in diameter than in the non-addition conditions” value is given as “about 50 μm” and the “proliferation of unintended cells” value is on record as “suppressed”.
As to `C[C@@H]1C[C@H]2[C@@H]3CCC4=CC(=O)C=C[C@]4(C)[C@@]3(F)[C@@H](O)C[C@]2(C)[C@@]1(O)C(=O)CO` [DX, dexamethasone], the “reduction of the amount of ACTH secretion” value in test [3] (500 ng/mL) is reported as “about 40%”.

B1: BMP4: BMP signal transduction pathway activating substance (protein, UniProt P12644 293-408, looked up)
Bone morphogenetic protein 4: SPKHHSQRARKKNKNCRRHSLYVDFSDVGWNDWIVAPPGYQAFYCHGDCPFPLADHLNSTNHAIVQTLVNSVNSSIPKACCVPTELSAISMLYLDEYDKVVLKNYQEMVVEGCGCR
On to B1, for which the “formation” value in test [1] is “highest probability”. Besides, in test [2], the “ACTH concentration … vs high concentration group” value is “higher”. In addition, the “size of the pituitary organoids formed” value in test [6] is on record as “more uniform”.
